From ChEMBL document CHEMBL1135182, “Synthesis and anti-influenza evaluation of polyvalent sialidase inhibitors bearing 4-guanidino-Neu5Ac2en derivatives” (Bioorg Med Chem Lett, 2002)
≈ marks a conversion by molar mass, not a printed value. Non-standard residues stand in square brackets, D forms with d. Residues, ends and D or L forms follow the SMILES beside them. ξ: configuration not given here. *: point of attachment. X3 = CC(=O)N[C@H]1[C@H]([C@H](OCCCCCN*)[C@H](O)CO)OC(C(=O)O)=C[C@@H]1NC(=N)N; X4 = CC(=O)N[C@H]1[C@H]([C@H](OCCCCCN*)[C@H](O)CO)OC(C(=O)O)=C[C@@H]1N=C(N)N; X1 = CC(=O)N[C@H]1[C@H]([C@H](OCCN*)[C@H](O)CO)OC(C(=O)O)=C[C@@H]1NC(=N)N; X2 = CC(=O)N[C@H]1[C@H]([C@H](OCCN*)[C@H](O)CO)OC(C(=O)O)=C[C@@H]1N=C(N)N; ξE = NC(CCC(=O)O)C(=O)O; NHBn = c1ccc(CN*)cc1; NHPentyl = CCCCCN*

Legend:
Influenza A virus [1] = test: Inhibitory concentration by Plaque reduction assay; format: functional, organism-based
Mus musculus [2] = species on record: Mus musculus; test: Number of survivors out of 7 tested mice at 10 days after infection with influenza A/PR/8/34 (H1N1) virus; format: functional
Mus musculus [3] = species on record: Mus musculus; test: Number of survivors out of 7 tested mice at 20 days after infection with influenza A/PR/8/34 (H1N1) virus; format: functional
Influenza A virus [4] = test: Inhibitory concentration by Sialidase inhibitory assay; format: functional, organism-based
Mus musculus [5] = species on record: Mus musculus; test: Number of survivors out of 8 tested mice at 10 days after infection with influenza A/PR/8/34 (H1N1) virus; format: functional
Mus musculus [6] = species on record: Mus musculus; test: Number of survivors out of 8 tested mice at 20 days after infection, with influenza A/PR/8/34 (H1N1) virus; format: functional

CC(=O)N[C@H]1[C@H]([C@H](OCCCCCNC(=O)CCC(N)C(=O)N[C@@H](CCC(N)=O)C(=O)N[C@@H](CCC(N)=O)C(=O)N[C@@H](CCC(N)=O)C(=O)CN[C@@H](CCC(N)=O)C(=O)N[C@@H](CCC(N)=O)C(=O)N[C@@H](CCC(N)=O)C(=O)N[C@@H](CCC(N)=O)C(=O)N[C@@H](CCC(N)=O)C(=O)N[C@@H](CCC(N)=O)C(=O)N[C@@H](CCC(N)=O)C(N)=O)[C@H](O)CO)OC(C(=O)O)=C[C@@H]1NC(=N)N (some centres undefined)
IC50 (Influenza A virus [1]): 0.072 ng/mL (≈ 0.0391 nM)
Survival rate (Mus musculus [2]): 7
Survival rate (Mus musculus [3]): 7
IC50 (Influenza A virus [4]): 161 ng/mL (≈ 87.5 nM)

CC(=O)NCCO[C@@H]([C@@H]1OC(C(=O)O)=C[C@H](N=C(N)N)[C@H]1NC(C)=O)[C@H](O)CO
IC50 (Influenza A virus [1]): 5.5 ng/mL (≈ 13.2 nM)
IC50 (Influenza A virus [4]): 22 ng/mL (≈ 52.7 nM)

CC(=O)N[C@H]1[C@H]([C@H](OCCCCCCCCCCNC(=O)CCC(N)C(=O)N[C@@H](CCC(N)=O)C(=O)N[C@@H](CCC(N)=O)C(=O)N[C@@H](CCC(N)=O)C(=O)CN[C@@H](CCC(N)=O)C(=O)N[C@@H](CCC(N)=O)C(=O)N[C@@H](CCC(N)=O)C(=O)N[C@@H](CCC(N)=O)C(=O)N[C@@H](CCC(N)=O)C(=O)N[C@@H](CCC(N)=O)C(=O)N[C@@H](CCC(N)=O)C(N)=O)[C@H](O)CO)OC(C(=O)O)=C[C@@H]1NC(=N)N (some centres undefined)
IC50 (Influenza A virus [1]): 2.1 ng/mL (≈ 1.1 nM)
IC50 (Influenza A virus [4]): 62 ng/mL (≈ 32.4 nM)

CC(=O)NCCCCCO[C@@H]([C@@H]1OC(C(=O)O)=C[C@H](N=C(N)N)[C@H]1NC(C)=O)[C@H](O)CO
IC50 (Influenza A virus [1]): 5.9 ng/mL (≈ 12.8 nM)
IC50 (Influenza A virus [4]): 90 ng/mL (≈ 196 nM)

CC(=O)N[C@H]1[C@H]([C@H](OCCNC(=O)CCC(N)C(=O)N[C@@H](CCC(N)=O)C(=O)N[C@@H](CCC(N)=O)C(=O)N[C@@H](CCC(N)=O)C(=O)CN[C@@H](CCC(N)=O)C(=O)N[C@@H](CCC(N)=O)C(=O)N[C@@H](CCC(N)=O)C(=O)N[C@@H](CCC(N)=O)C(=O)N[C@@H](CCC(N)=O)C(=O)N[C@@H](CCC(N)=O)C(=O)N[C@@H](CCC(N)=O)C(N)=O)[C@H](O)CO)OC(C(=O)O)=C[C@@H]1NC(=N)N (some centres undefined)
IC50 (Influenza A virus [1]): 0.066 ng/mL (≈ 0.0367 nM)
IC50 (Influenza A virus [4]): 114 ng/mL (≈ 63.4 nM)

CC(=O)N[C@H]1[C@H]([C@H](OCCNC(=O)CC[C@H](NC(=O)[C@H](CCC(=O)NCc2ccccc2)NC(=O)[C@H](CCC(=O)NCc2ccccc2)NC(=O)[C@H](CCC(=O)NCc2ccccc2)NC(=O)[C@@H](N)CCC(=O)NCc2ccccc2)C(=O)N[C@@H](CCC(N)=O)C(=O)N[C@@H](CCC(N)=O)C(=O)N[C@@H](CCC(N)=O)C(=O)N[C@@H](CCC(N)=O)C(=O)N[C@@H](CCC(N)=O)C(=O)N[C@@H](CCC(N)=O)C(=O)N[C@@H](CCC(N)=O)C(N)=O)[C@H](O)CO)OC(C(=O)O)=C[C@@H]1NC(=N)N (H-E(NHBn)E(NHBn)E(NHBn)E(NHBn)E(X1)QQQQQQQ-NH2)
IC50 (Influenza A virus [1]): 0.15 ng/mL (≈ 0.066 nM)
IC50 (Influenza A virus [4]): 324 ng/mL (≈ 143 nM)

CC(=O)N[C@H]1[C@H]([C@H](OCCCCCNC(=O)CC[C@H](NC(=O)[C@H](CCC(=O)NCc2ccccc2)NC(=O)[C@@H](N)CCC(=O)NCc2ccccc2)C(=O)N[C@@H](CCC(N)=O)C(=O)N[C@@H](CCC(N)=O)C(=O)N[C@@H](CCC(N)=O)C(=O)N[C@@H](CCC(N)=O)C(=O)N[C@@H](CCC(N)=O)C(=O)N[C@@H](CCC(N)=O)C(=O)N[C@@H](CCC(N)=O)C(=O)N[C@@H](CCC(N)=O)C(N)=O)[C@H](O)CO)OC(C(=O)O)=C[C@@H]1NC(=N)N (H-E(NHBn)E(NHBn)E(X3)QQQQQQQQ-NH2)
IC50 (Influenza A virus [1]): 0.028 ng/mL (≈ 0.014 nM)
IC50 (Influenza A virus [4]): 63 ng/mL (≈ 31.4 nM)

CCCCCNC(=O)CC[C@H](NC(=O)[C@H](CCC(=O)NCCCCC)NC(=O)[C@H](CCC(=O)NCCCCC)NC(=O)[C@@H](N)CCC(=O)NCCCCC)C(=O)N[C@@H](CCC(=O)NCCO[C@@H]([C@@H]1OC(C(=O)O)=C[C@H](N=C(N)N)[C@H]1NC(C)=O)[C@H](O)CO)C(=O)N[C@@H](CCC(N)=O)C(=O)N[C@@H](CCC(N)=O)C(=O)N[C@@H](CCC(N)=O)C(=O)N[C@@H](CCC(N)=O)C(=O)N[C@@H](CCC(N)=O)C(=O)N[C@@H](CCC(N)=O)C(=O)N[C@@H](CCC(N)=O)C(N)=O (H-E(NHPentyl)E(NHPentyl)E(NHPentyl)E(NHPentyl)E(X2)QQQQQQQ-NH2)
IC50 (Influenza A virus [1]): 0.1 ng/mL (≈ 0.0456 nM)
IC50 (Influenza A virus [4]): 585 ng/mL (≈ 267 nM)

CCCCCNC(=O)CC[C@H](NC(=O)[C@@H](N)CCC(=O)NCCCCC)C(=O)N[C@@H](CCC(=O)NCCCCCO[C@@H]([C@@H]1OC(C(=O)O)=C[C@H](N=C(N)N)[C@H]1NC(C)=O)[C@H](O)CO)C(=O)N[C@@H](CCC(N)=O)C(=O)N[C@@H](CCC(N)=O)C(=O)N[C@@H](CCC(N)=O)C(=O)N[C@@H](CCC(N)=O)C(=O)N[C@@H](CCC(N)=O)C(=O)N[C@@H](CCC(N)=O)C(=O)N[C@@H](CCC(N)=O)C(=O)N[C@@H](CCC(N)=O)C(N)=O (H-E(NHPentyl)E(NHPentyl)E(X4)QQQQQQQQ-NH2)
IC50 (Influenza A virus [1]): 0.32 ng/mL (≈ 0.163 nM)
IC50 (Influenza A virus [4]): 113 ng/mL (≈ 57.4 nM)

CC(=O)N[C@H]1[C@H]([C@H](OCCNC(=O)CCC(N)C(=O)N[C@@H](CCC(N)=O)C(=O)N[C@@H](CCC(N)=O)C(=O)N[C@@H](CCC(N)=O)C(N)=O)[C@H](O)CO)OC(C(=O)O)=C[C@@H]1NC(=N)N (some centres undefined) (H-[ξE](X1)QQQ-NH2)
IC50 (Influenza A virus [1]): 0.17 ng/mL (≈ 0.191 nM)
IC50 (Influenza A virus [4]): 364 ng/mL (≈ 410 nM)

CC(=O)N[C@H]1[C@H]([C@H](O)[C@H](O)CO)OC(C(=O)O)=C[C@@H]1NC(=N)N [ZANAMIVIR]
Survival rate (Mus musculus [5]): 1
Survival rate (Mus musculus [6]): 0
